According to patent US20070049564A1 (Wyeth, priority 2005, published 2007):
≈ marks a conversion by molar mass, not a printed value. Read-outs that look alike come from different tables or passages of the source.

Legend:
[1] = tested on: E. coli GC 2231; test: MIC, broth microdilution; settings: Escherichia coli
[2] = tested on: E. coli GC 2232; test: MIC, broth microdilution; settings: Escherichia coli
[3] = tested on: E. coli GC 2272; test: MIC, broth microdilution; settings: Escherichia coli
[4] = tested on: E. coli GC 4560; test: MIC, broth microdilution; settings: Escherichia coli
[5] = tested on: E. coli GC 6465; test: MIC, broth microdilution; settings: Escherichia coli
[6] = tested on: E. coli GC 3226; test: MIC, broth microdilution; settings: Escherichia coli
[7] = tested on: E. coli GC 2203; test: MIC, broth microdilution; settings: Escherichia coli
[8] = tested on: S. typhimurium GC 2172; test: MIC, broth microdilution; settings: Salmonella enterica, TYPHIMURIUM
[9] = tested on: S. aureus GC 6466; test: MIC, broth microdilution; settings: Staphylococcus aureus
[10] = tested on: S. aureus GC 6467; test: MIC, broth microdilution; settings: Staphylococcus aureus
[11] = tested on: S. aureus GC 4536; test: MIC, broth microdilution; settings: Staphylococcus aureus
[12] = tested on: S. aureus GC 6469; test: MIC, broth microdilution; settings: Staphylococcus aureus
[13] = tested on: E. faecalis GC 4555; test: MIC, broth microdilution; settings: Enterococcus faecalis
[14] = tested on: E. faecalis GC 2265; test: MIC, broth microdilution; settings: Enterococcus faecalis
[15] = tested on: E. faecalis GC 2267; test: MIC, broth microdilution; settings: Enterococcus faecalis
[16] = tested on: E. faecium GC 2243; test: MIC, broth microdilution; settings: Enterococcus faecium
[17] = tested on: S. pneumoniae* GC 4465; test: MIC, broth microdilution; settings: Streptococcus pneumoniae
[18] = tested on: S. agalactiae GC 4564; test: MIC, broth microdilution; settings: Streptococcus agalactiae
[19] = tested on: E. coli; test: Range of MIC for E. coli strains; settings: Escherichia coli
[20] = tested on: Staph.; test: Range of MIC for Staph. strains, including MRSA; settings: Staphylococcus aureus
[21] = read-out: MINIMAL INHIBITORY CONCENTRATION MIC, Human Serum
[22] = read-out: MINIMAL INHIBITORY CONCENTRATION MIC, Mouse Serum
[23] = read-out: MINIMAL INHIBITORY CONCENTRATION MIC, Water

SMILES: CC(C)CC(=O)OCOC(=O)N(CC(=O)Nc1cc(N(C)C)c2c(c1O)C(=O)C1=C(O)[C@]3(O)C(=O)C(C(N)=O)=C(O)[C@@H](N(C)C)[C@@H]3C[C@@H]1C2)C(C)(C)C [Example 53, ({[(2-{[(5aR,6aS,7S,10aS)-9-(aminocarbonyl)-4,7-bis(dimethylamino)-1,8,10a,11-tetrahydroxy-10,12-dioxo-5,5a,6,6a,7,10,10a,12-octahydrotetracen-2-yl]amino}-2-oxoethyl)(tert-butyl)amino]carbonyl}oxy)methyl 3-methylbutanoate]
- MIC ([1]; GC2231, read-out: MINIMAL INHIBITORY CONCENTRATION MIC, Human Serum): 16 µg/mL (≈ 21.5 µM)
- MIC ([1]; GC2231, read-out: MINIMAL INHIBITORY CONCENTRATION MIC, Mouse Serum): 1 µg/mL (≈ 1.34 µM)
- MIC ([1]; GC2231, read-out: MINIMAL INHIBITORY CONCENTRATION MIC, Water): 64 µg/mL (≈ 86 µM)
- MIC ([2]; GC2232, read-out: MINIMAL INHIBITORY CONCENTRATION MIC, Human Serum): 8 µg/mL (≈ 10.8 µM)
- MIC ([2]; GC2232, read-out: MINIMAL INHIBITORY CONCENTRATION MIC, Mouse Serum): 0.5 µg/mL (≈ 0.672 µM)
- MIC ([2]; GC2232, read-out: MINIMAL INHIBITORY CONCENTRATION MIC, Water): 32 µg/mL (≈ 43 µM)
- MIC ([3]; GC2272, read-out: MINIMAL INHIBITORY CONCENTRATION MIC, Human Serum): 8 µg/mL (≈ 10.8 µM)
- MIC ([3]; GC2272, read-out: MINIMAL INHIBITORY CONCENTRATION MIC, Mouse Serum): 0.25 µg/mL (≈ 0.336 µM)
- MIC ([3]; GC2272, read-out: MINIMAL INHIBITORY CONCENTRATION MIC, Water): 16 µg/mL (≈ 21.5 µM)
- MIC ([4]; GC4560, read-out: MINIMAL INHIBITORY CONCENTRATION MIC, Human Serum): 2 µg/mL (≈ 2.69 µM)
- MIC ([4]; GC4560, read-out: MINIMAL INHIBITORY CONCENTRATION MIC, Mouse Serum): 0.5 µg/mL (≈ 0.672 µM)
- MIC ([4]; GC4560, read-out: MINIMAL INHIBITORY CONCENTRATION MIC, Water): 2 µg/mL (≈ 2.69 µM)
- MIC ([5]; GC6465, read-out: MINIMAL INHIBITORY CONCENTRATION MIC, Human Serum): 32 µg/mL (≈ 43 µM)
- MIC ([5]; GC6465, read-out: MINIMAL INHIBITORY CONCENTRATION MIC, Mouse Serum): 4 µg/mL (≈ 5.38 µM)
- MIC ([5]; GC6465, read-out: MINIMAL INHIBITORY CONCENTRATION MIC, Water): > 64 µg/mL
- MIC ([6]; GC3226, read-out: MINIMAL INHIBITORY CONCENTRATION MIC, Human Serum): 16 µg/mL (≈ 21.5 µM)
- MIC ([6]; GC3226, read-out: MINIMAL INHIBITORY CONCENTRATION MIC, Mouse Serum): 1 µg/mL (≈ 1.34 µM)
- MIC ([6]; GC3226, read-out: MINIMAL INHIBITORY CONCENTRATION MIC, Water): 32 µg/mL (≈ 43 µM)
- MIC ([7]; GC2203, read-out: MINIMAL INHIBITORY CONCENTRATION MIC, Human Serum): 16 µg/mL (≈ 21.5 µM)
- MIC ([7]; GC2203, read-out: MINIMAL INHIBITORY CONCENTRATION MIC, Mouse Serum): 1 µg/mL (≈ 1.34 µM)
- MIC ([7]; GC2203, read-out: MINIMAL INHIBITORY CONCENTRATION MIC, Water): 32 µg/mL (≈ 43 µM)
- MIC [8, 21]: 64 µg/mL (≈ 86 µM)
- MIC [8, 22]: 4 µg/mL (≈ 5.38 µM)
- MIC [8, 23]: > 64 µg/mL
- MIC ([9]; GC6466, read-out: MINIMAL INHIBITORY CONCENTRATION MIC, Human Serum): 0.5 µg/mL (≈ 0.672 µM)
- MIC ([9]; GC6466, read-out: MINIMAL INHIBITORY CONCENTRATION MIC, Mouse Serum): 0.5 µg/mL (≈ 0.672 µM)
- MIC ([9]; GC6466, read-out: MINIMAL INHIBITORY CONCENTRATION MIC, Water): 0.5 µg/mL (≈ 0.672 µM)
- MIC ([10]; GC6467, read-out: MINIMAL INHIBITORY CONCENTRATION MIC, Human Serum): 1 µg/mL (≈ 1.34 µM)
- MIC ([10]; GC6467, read-out: MINIMAL INHIBITORY CONCENTRATION MIC, Mouse Serum): 1 µg/mL (≈ 1.34 µM)
- MIC ([10]; GC6467, read-out: MINIMAL INHIBITORY CONCENTRATION MIC, Water): 2 µg/mL (≈ 2.69 µM)
- MIC ([11]; GC4536, read-out: MINIMAL INHIBITORY CONCENTRATION MIC, Human Serum): 0.5 µg/mL (≈ 0.672 µM)
- MIC ([11]; GC4536, read-out: MINIMAL INHIBITORY CONCENTRATION MIC, Mouse Serum): 0.25 µg/mL (≈ 0.336 µM)
- MIC ([11]; GC4536, read-out: MINIMAL INHIBITORY CONCENTRATION MIC, Water): 1 µg/mL (≈ 1.34 µM)
- MIC ([12]; GC6469, read-out: MINIMAL INHIBITORY CONCENTRATION MIC, Human Serum): 1 µg/mL (≈ 1.34 µM)
- MIC ([12]; GC6469, read-out: MINIMAL INHIBITORY CONCENTRATION MIC, Mouse Serum): 1 µg/mL (≈ 1.34 µM)
- MIC ([12]; GC6469, read-out: MINIMAL INHIBITORY CONCENTRATION MIC, Water): 2 µg/mL (≈ 2.69 µM)
- MIC ([13]; GC4555, read-out: MINIMAL INHIBITORY CONCENTRATION MIC, Human Serum): 2 µg/mL (≈ 2.69 µM)
- MIC ([13]; GC4555, read-out: MINIMAL INHIBITORY CONCENTRATION MIC, Mouse Serum): 0.5 µg/mL (≈ 0.672 µM)
- MIC ([13]; GC4555, read-out: MINIMAL INHIBITORY CONCENTRATION MIC, Water): 2 µg/mL (≈ 2.69 µM)
- MIC ([14]; GC2265, read-out: MINIMAL INHIBITORY CONCENTRATION MIC, Human Serum): 0.5 µg/mL (≈ 0.672 µM)
- MIC ([14]; GC2265, read-out: MINIMAL INHIBITORY CONCENTRATION MIC, Mouse Serum): 1 µg/mL (≈ 1.34 µM)
- MIC ([14]; GC2265, read-out: MINIMAL INHIBITORY CONCENTRATION MIC, Water): 4 µg/mL (≈ 5.38 µM)
- MIC ([15]; GC2267, read-out: MINIMAL INHIBITORY CONCENTRATION MIC, Human Serum): 2 µg/mL (≈ 2.69 µM)
- MIC ([15]; GC2267, read-out: MINIMAL INHIBITORY CONCENTRATION MIC, Mouse Serum): 0.5 µg/mL (≈ 0.672 µM)
- MIC ([15]; GC2267, read-out: MINIMAL INHIBITORY CONCENTRATION MIC, Water): 4 µg/mL (≈ 5.38 µM)
- MIC ([16]; GC2243, read-out: MINIMAL INHIBITORY CONCENTRATION MIC, Human Serum): 0.25 µg/mL (≈ 0.336 µM)
- MIC ([16]; GC2243, read-out: MINIMAL INHIBITORY CONCENTRATION MIC, Mouse Serum): 0.25 µg/mL (≈ 0.336 µM)
- MIC ([16]; GC2243, read-out: MINIMAL INHIBITORY CONCENTRATION MIC, Water): 0.5 µg/mL (≈ 0.672 µM)
- MIC [17, 21]: 0.25 µg/mL (≈ 0.336 µM)
- MIC [17, 22]: 0.12 µg/mL (≈ 0.161 µM)
- MIC [17, 23]: 0.12 µg/mL (≈ 0.161 µM)
- MIC ([18]; GC4564, read-out: MINIMAL INHIBITORY CONCENTRATION MIC, Human Serum): 0.5 µg/mL (≈ 0.672 µM)
- MIC ([18]; GC4564, read-out: MINIMAL INHIBITORY CONCENTRATION MIC, Mouse Serum): < 0.06 µg/mL
- MIC ([18]; GC4564, read-out: MINIMAL INHIBITORY CONCENTRATION MIC, Water): 0.5 µg/mL (≈ 0.672 µM)
- MIC ([19]; 20 h, read-out: Range of MIC, E. coli (Mouse Serum)): 0.25 to 1 µg/mL (≈ 0.336 to 1.34 µM)
- MIC ([19]; read-out: Minimum inhibitory concentration (MIC), E. coli (Human Serum)): 8 to 16 µg/mL (≈ 10.8 to 21.5 µM)
- MIC ([19]; read-out: Minimum inhibitory concentration (MIC), E. coli (water)): 16 to 64 µg/mL (≈ 21.5 to 86 µM)
- MIC ([19]; read-out: Range of MIC, E. coli (Water)): 16 to 64 µg/mL (≈ 21.5 to 86 µM)
- MIC ([20]; MRSA, read-out: Range of MIC, Staph (Mouse Serum)): 0.25 to 1 µg/mL (≈ 0.336 to 1.34 µM)
- MIC ([20]; MRSA, read-out: Range of MIC, Staph (Water)): 0.5 to 2 µg/mL (≈ 0.672 to 2.69 µM)
- MIC ([20]; read-out: Minimum inhibitory concentration (MIC), Staph (Human Serum)): 0.5 to 2 µg/mL (≈ 0.672 to 2.69 µM)
- MIC ([20]; read-out: Minimum inhibitory concentration (MIC), Staph (Water)): 0.5 to 2 µg/mL (≈ 0.672 to 2.69 µM)
